B1: PchE (dihydroaeruginoic acid synthetase, NRPS elongation module of the pyochelin pathway) (enzyme)
chain: MDLPPDSRTALRDWLTEQLADLLGEPLADVRALADDDDLLGCGLDSIRLMYLQERLRARGSTLDFAQLAQRPCLGAWLDLLACADRLSAPATVALPTAQDRDQPFELSSVQQAYWLGRGAGEVLGNVSCHAFLEFRTRDVDPQRLAAAAECVRQRHPMLRARFLDGRQQILPTPPLSCFDLQDWRTLQVDEAERDWQALRDWRAHECLAVERGQVFLLGLVRMPGGEDRLWLSLDLLAADVESLRLLLAELGVAYLAPERLAEPPALHFADYLAHRAAQRAEAAARARDYWLERLPRLPDAPALPLACAPESIRQPRTRRLAFQLSAGESRRLERLAAQHGVTLSSVFGCAFALVLARWSESAEFLLNVPLFDRHADDPRIGEVIADFTTLLLLECRMQAGVSFAEAVKSFQRNLHGAIDHAAFPALEVLREARRQGQPRSAPVVFASNLGEEGFVPAAFRDAFGDLHDMLSQTPQVWLDHQLYRVGDGILLAWDSVVGLFPEGLPETMFEAYVGLLQRLCDSAWGQPADLPLPWAQQARRALLNGQPACATARTLHRDFFLRAAEAPDADALLYRDQRVTRGELAERALRIAGGLREAGVRPGDAVEVSLPRGPQQVAAVFGVLAAGACYVPLDIDQPPARRRLIEEAAGVCLAITEEDDPQALPPRLDVQRLLRGPALAAPVPLAPQASAYVIYTSGSTGVPKGVEVSHAAAINTIDALLDLLRVNASDRLLAVSALDFDLSVFDLFGGLGAGASLVLPAQEQARDAAAWAEAIQRHAVSLWNSAPALLEMALSLPASQADYRSLRAVLLSGDWVALDLPGRLRPRCAEGCRLHVLGGATEAGIWSNLQSVDTVPPHWRSIPYGRPLPGQAYRVVDTHGRDVPDLVVGELWIGGASLARGYRNDPELSARRFVHDAQGRWYRTGDRGRYWGDGTLEFLGRVDQQVKVRGQRIELGEVEAALCAQAGVESACAAVLGGGVASLGAVLVPRLAPRAEGSMDLPAAQPFAGLAEAEAVLTREILGALLEAPLELDDGLRRRWLDWLADSAASALPSLDEALRRLGWQAAGLTAMGNALRGLLAGEQAPAALLLDPWLAPQAVAARLPDGREALARLLEALPTPAAGERLRVAVLDTRAGLWLDQGMASLLRPGLELTLFERSRVLLDAAATRLPERIVVQALDDGLLPAEHLGRYDRVISFAALHAYEASREGLALAAALLRPQGRLLLVDLLCESPLALLGAALLDDRPLRLAELPSLLADLAAAGLAPRCLWRSERIALVEALAPGLGLDAAALQAGLEQRLPQAMRPERLWCLPSLPLNGNGKVDRRRLAESMTRALGECRHEPSAEEPLEAHEQALAECWEAVLKRPVRRREASFFSLGGDSLLATRLLAGIRERFGVRLGMADFYRQPTLAGLARHLQVQTVEIEETQLEEGVL
modifications: phosphopantetheine (pPant) arms on the ArCP and PCP domains; salicyl-pPant or hydroxyphenylthiazolinyl-pPant seen in some conformations
notes: also called Strep II-tagged PchE; source: E. coli BAP1, purified (Strep-Tactin resin, Superose 6 Increase size exclusion)

What was measured:
PchD = PchD (Pseudomonas aeruginosa, UniProt Q9HWG3); details: 10 uM PchE, 10 uM PchD, 10 uM SrfD, 5 mM cysteine, 1 mM salicylate, 5 mM ATP, 10 mM MgCl2, 50 mM Tris pH 7.9, 25 C, 2.5 h; PchD loads salicylate onto ArCP of PchE (coupled read-out)
[1] = target: the molecule itself; test: cryo-EM structure; PchE reacted with PchD (0.5:1), salicylate, cysteine, ATP, MgCl2, then purified on Superose 6 Increase in 50 mM Tricine pH 8.0, 1 mM MgCl2; ~4 mg/mL with 1 mM cysteine and ATP; three conformations at 2.97, 3.78 and 3.47 Å

PchD, sequence (Q9HWG3 whole entry): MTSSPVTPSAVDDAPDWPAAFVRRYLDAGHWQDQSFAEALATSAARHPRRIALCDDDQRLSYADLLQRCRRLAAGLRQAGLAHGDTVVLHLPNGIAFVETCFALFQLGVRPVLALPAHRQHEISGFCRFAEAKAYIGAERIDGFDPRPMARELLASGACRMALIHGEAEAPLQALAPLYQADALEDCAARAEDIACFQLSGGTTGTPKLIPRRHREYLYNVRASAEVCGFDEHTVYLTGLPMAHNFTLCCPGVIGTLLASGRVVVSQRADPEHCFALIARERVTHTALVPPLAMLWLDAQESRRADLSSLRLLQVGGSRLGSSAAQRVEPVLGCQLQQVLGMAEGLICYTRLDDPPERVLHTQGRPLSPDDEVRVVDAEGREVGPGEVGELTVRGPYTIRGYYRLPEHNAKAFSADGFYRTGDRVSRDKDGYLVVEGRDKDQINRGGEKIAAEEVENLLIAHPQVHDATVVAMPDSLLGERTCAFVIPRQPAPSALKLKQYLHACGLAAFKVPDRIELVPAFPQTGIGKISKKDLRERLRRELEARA

Molecule | in vitro reconstitution, HPLC and LC-MS of products (PchD) | stoichiometry N [1]
O=C(O)c1ccccc1O [salicylate] | PchD is responsible for loading salicylate onto the ArCP domain of PchE | –
B1 | – | 2
